Measured values as given in PubChem BioAssay AID256 (DTP/NCI, 2004).
“And” between values parts separate entries of the source, which are not always exact repeats. Identical values can stand only once. Toxic doses and inconclusive results are not listed. The calls were made as follows: active = survival T/C of 150% or more; inactive = T/C below 125% in these data.

Test system: CD2F1 mice, L1210 leukemia ip, survival T/C
Assay: NCI In Vivo Anticancer Drug Screen. Data for tumor model L1210 Leukemia (intraperitoneal) in CD2F1 (CDF1) mice
Conditions: higher = longer survival
In short: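 Tumor-bearing mice (transplanted tumor) were split into treated and vehicle control groups, and the measured endpoint of each treated group was divided by that of its vehicle controls.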

[1] = endpoint: mean survival time, dose: 100.0 mg/kg/injection, schedule: Q04DX002 (ip), vehicle: saline with Tween-80
[2] = endpoint: mean survival time, dose: 200.0 mg/kg/injection, schedule: Q04DX002 (ip), vehicle: saline with Tween-80
[3] = endpoint: mean survival time, dose: 25.0 mg/kg/injection, schedule: Q01DX009 (ip), vehicle: saline with Tween-80
[4] = endpoint: mean survival time, dose: 50.0 mg/kg/injection, schedule: Q01DX009 (ip), vehicle: saline with Tween-80
[5] = endpoint: mean survival time, dose: 100.0 mg/kg/injection, schedule: Q01DX009 (ip), vehicle: saline with Tween-80
[6] = endpoint: mean survival time, dose: 200.0 mg/kg/injection, schedule: Q01DX009 (ip), vehicle: saline with Tween-80
[7] = endpoint: mean survival time, dose: 400.0 mg/kg/injection, schedule: Q04DX002 (ip), vehicle: saline with Tween-80
[8] = endpoint: mean survival time, dose: 25.0 mg/kg/injection, schedule: Q01DX009 (ip), vehicle: saline
[9] = endpoint: mean survival time, dose: 50.0 mg/kg/injection, schedule: Q01DX009 (ip), vehicle: saline
[10] = endpoint: mean survival time, dose: 100.0 mg/kg/injection, schedule: Q01DX009 (ip), vehicle: saline
[11] = endpoint: mean survival time, dose: 12.5 mg/kg/injection, schedule: Q01DX009 (ip), vehicle: Klucel (hydroxypropylcellulose) (HPC)
[12] = endpoint: mean survival time, dose: 25.0 mg/kg/injection, schedule: Q01DX009 (ip), vehicle: Klucel (hydroxypropylcellulose) (HPC)
[13] = endpoint: mean survival time, dose: 12.5 mg/kg/injection, schedule: Q04DX003 (ip), vehicle: saline with Tween-80
[14] = endpoint: mean survival time, dose: 25.0 mg/kg/injection, schedule: Q04DX003 (ip), vehicle: saline with Tween-80
[15] = endpoint: mean survival time, dose: 50.0 mg/kg/injection, schedule: Q04DX003 (ip), vehicle: saline with Tween-80
[16] = endpoint: mean survival time, dose: 100.0 mg/kg/injection, schedule: Q04DX003 (ip), vehicle: saline with Tween-80

Measured: T/C

CCC(c1ccc(O)c(CN(CC)CC)c1)C(CC)c1ccc(O)c(CN(CC)CC)c1 (configuration not stated)
inactive: [1] 92 % of control | [2] 92 % of control

CCCCOCN(COCCCC)C12CC3CC(CC(C3)C1)C2
inactive: endpoint: mean survival time, dose: 12.5 mg/kg/injection, schedule: Q01DX009 (ip), vehicle: saline with Tween-80 96 % of control and 100 % of control | [3] 98 % of control | [4] 101 % of control and 103 % of control | [5] 101 % of control and 105 % of control | [6] 113 % of control and 108 % of control

Clc1ccc(SSc2ccc(Cl)cc2Cl)c(Cl)c1
inactive: [1] 90 % of control | [2] 104 % of control | [7] 95 % of control

CCOC1OC(COC(C)=O)C(OC(C)=O)C(OC(C)=O)C1OC(C)=O (configuration not stated)
inactive: endpoint: mean survival time, dose: 100.0 mg/kg/injection, schedule: Q01DX001 (ip), vehicle: saline with Tween-80 94 % of control | endpoint: mean survival time, dose: 200.0 mg/kg/injection, schedule: Q01DX001 (ip), vehicle: saline with Tween-80 97 % of control | endpoint: mean survival time, dose: 400.0 mg/kg/injection, schedule: Q01DX001 (ip), vehicle: saline with Tween-80 96 % of control

O=C(O)Cn1nnc2ccccc21
inactive: [3] 100 % of control | [8] 102 % of control | [4] 97 % of control | [9] 102 % of control | [5] 97 % of control | [10] 98 % of control | [6] 100 % of control | endpoint: mean survival time, dose: 200.0 mg/kg/injection, schedule: Q01DX009 (ip), vehicle: saline 100 % of control

Cc1cc(=O)c(C(=O)O)c(C)[nH]1
inactive: [1] 86 % of control | [2] 86 % of control | [7] 91 % of control

Oc1c(Cl)cc(C(c2cc(Cl)c(O)c(Cl)c2)C(c2cc(Cl)c(O)c(Cl)c2)c2cc(Cl)c(O)c(Cl)c2)cc1Cl
inactive: [11] 95 % of control | [12] 97 % of control | endpoint: mean survival time, dose: 50.0 mg/kg/injection, schedule: Q01DX009 (ip), vehicle: Klucel (hydroxypropylcellulose) (HPC) 103 % of control | endpoint: mean survival time, dose: 100.0 mg/kg/injection, schedule: Q01DX009 (ip), vehicle: Klucel (hydroxypropylcellulose) (HPC) 106 % of control | endpoint: mean survival time, dose: 200.0 mg/kg/injection, schedule: Q01DX009 (ip), vehicle: Klucel (hydroxypropylcellulose) (HPC) 115 % of control | endpoint: mean survival time, dose: 400.0 mg/kg/injection, schedule: Q01DX009 (ip), vehicle: Klucel (hydroxypropylcellulose) (HPC) 96 % of control

C/C=C\c1ccc(OCCOC(=O)Nc2ccc(C)cc2C)c(OC)c1
inactive: [4] 104 % of control | [5] 96 % of control | [6] 93 % of control

Cc1nc2ccccc2nc1CBr
inactive: endpoint: mean survival time, dose: 12.5 mg/kg/injection, schedule: Q01DX009 (ip), vehicle: acetone 110 % of control

N#CCCC(C#N)(c1cccnc1)N1CCOCC1 (configuration not stated)
inactive: [11] 93 % of control | [12] 97 % of control | endpoint: mean survival time, dose: 25.0 mg/kg/injection, schedule: Q04DX002 (ip), vehicle: saline with Tween-80 109 % of control

CN(Cc1cnc2nc(N)nc(N)c2n1)c1ccc(C(=O)NC(CCC(=O)NC(CCC(=O)NC(CCC(=O)NC(CCC(=O)O)C(=O)O)C(=O)O)C(=O)O)C(=O)O)cc1 (configuration not stated)
inactive: endpoint: mean survival time, dose: 0.5 mg/kg/injection, schedule: Q01DX005 (ip), vehicle: sodium bicarbonate 102 % of control | endpoint: mean survival time, dose: 1.0 mg/kg/injection, schedule: Q01DX005 (ip), vehicle: sodium bicarbonate 114 % of control and 111 % of control | endpoint: mean survival time, dose: 2.0 mg/kg/injection, schedule: Q01DX005 (ip), vehicle: sodium bicarbonate 118 % of control

COc1ccc(CC(N)C(=O)NC2C(CO)OC(n3cnc4c(N)ncnc43)C2O)cc1 (configuration not stated)
inactive: endpoint: mean survival time, dose: 75.0 mg/kg/injection, schedule: Q01DX001 (ip), vehicle: saline 100 % of control | endpoint: mean survival time, dose: 150.0 mg/kg/injection, schedule: Q01DX001 (ip), vehicle: saline 95 % of control | endpoint: mean survival time, dose: 300.0 mg/kg/injection, schedule: Q01DX001 (ip), vehicle: saline 100 % of control

Cc1cc(CC(Cl)(C(F)(F)F)C(F)(F)F)cc(CC(Cl)(C(F)(F)F)C(F)(F)F)n1
inactive: [13] 97 % of control | [14] 97 % of control | [15] 97 % of control

Cc1c(Cl)c(Cl)c(NS(=O)(=O)c2ccccc2)c(NS(=O)(=O)c2ccccc2)c1Cl
inactive: endpoint: mean survival time, dose: 100.0 mg/kg/injection, schedule: Q04DX003 (ip), vehicle: Klucel (hydroxypropylcellulose) (HPC) 97 % of control | endpoint: mean survival time, dose: 200.0 mg/kg/injection, schedule: Q04DX003 (ip), vehicle: Klucel (hydroxypropylcellulose) (HPC) 104 % of control | endpoint: mean survival time, dose: 400.0 mg/kg/injection, schedule: Q04DX003 (ip), vehicle: Klucel (hydroxypropylcellulose) (HPC) 95 % of control

Nn1[nH]c(=O)c2nc[nH]c2c1=O
inactive: endpoint: median survival time, dose: 15.0 mg/kg/injection, schedule: Q01DX005 (ip), vehicle: saline with Tween-80 103 % of control | endpoint: median survival time, dose: 30.0 mg/kg/injection, schedule: Q01DX005 (ip), vehicle: saline with Tween-80 111 % of control | endpoint: median survival time, dose: 60.0 mg/kg/injection, schedule: Q01DX005 (ip), vehicle: saline with Tween-80 102 % of control

O=P(NCCCl)(NCCCl)Oc1ccccc1
inactive: endpoint: mean survival time, dose: 62.5 mg/kg/injection, schedule: Q01DX001 (ip), vehicle: water 103 % of control | endpoint: mean survival time, dose: 125.0 mg/kg/injection, schedule: Q01DX001 (ip), vehicle: water 97 % of control | endpoint: mean survival time, dose: 250.0 mg/kg/injection, schedule: Q01DX001 (ip), vehicle: water 98 % of control | endpoint: mean survival time, dose: 500.0 mg/kg/injection, schedule: Q01DX001 (ip), vehicle: water 98 % of control

Cn1c(=O)c(Br)cc2ccccc21
inactive: endpoint: mean survival time, dose: 100.0 mg/kg/injection, schedule: Q01DX001 (ip), vehicle: saline 102 % of control | endpoint: mean survival time, dose: 200.0 mg/kg/injection, schedule: Q01DX001 (ip), vehicle: saline 96 % of control | endpoint: mean survival time, dose: 400.0 mg/kg/injection, schedule: Q01DX001 (ip), vehicle: saline 96 % of control

CCCCNC(=O)C1CC2c3cccc4c3C(CN4)CC2N(C)C1 (configuration not stated)
inactive: [15] 94 % of control | [16] 88 % of control

[Cl][Pt+2][Cl].[NH-]CCN(CCN)CCN
inactive: [13] 97 % of control | [14] 98 % of control

C=CCOCC(O)CN(CCC)CCC (configuration not stated)
inactive: endpoint: mean survival time, dose: 12.5 mg/kg/injection, schedule: Q01DX009 (ip), vehicle: saline 103 % of control | [8] 95 % of control | endpoint: mean survival time, dose: 25.0 mg/kg/injection, schedule: Q04DX003 (ip), vehicle: saline 93 % of control | [9] 103 % of control | endpoint: mean survival time, dose: 50.0 mg/kg/injection, schedule: Q04DX003 (ip), vehicle: saline 89 % of control | [16] 97 % of control

CC(C)(C)OC1C2C=CC1C1C2C2(Cl)C(Cl)=C(Cl)C1(Cl)C21OCCO1 (configuration not stated)
inactive: endpoint: mean survival time, dose: 41.25 mg/kg/injection, schedule: Q04DX002 (ip), vehicle: Klucel (hydroxypropylcellulose) (HPC) 98 % of control | endpoint: mean survival time, dose: 50.0 mg/kg/injection, schedule: Q04DX002 (ip), vehicle: Klucel (hydroxypropylcellulose) (HPC) 97 % of control | endpoint: mean survival time, dose: 82.5 mg/kg/injection, schedule: Q04DX002 (ip), vehicle: Klucel (hydroxypropylcellulose) (HPC) 100 % of control | endpoint: mean survival time, dose: 100.0 mg/kg/injection, schedule: Q04DX002 (ip), vehicle: Klucel (hydroxypropylcellulose) (HPC) 98 % of control | endpoint: mean survival time, dose: 165.0 mg/kg/injection, schedule: Q04DX002 (ip), vehicle: Klucel (hydroxypropylcellulose) (HPC) 98 % of control | endpoint: mean survival time, dose: 200.0 mg/kg/injection, schedule: Q04DX002 (ip), vehicle: Klucel (hydroxypropylcellulose) (HPC) 98 % of control | endpoint: mean survival time, dose: 330.0 mg/kg/injection, schedule: Q04DX002 (ip), vehicle: Klucel (hydroxypropylcellulose) (HPC) 98 % of control | endpoint: mean survival time, dose: 400.0 mg/kg/injection, schedule: Q04DX002 (ip), vehicle: Klucel (hydroxypropylcellulose) (HPC) 97 % of control

Cc1cccc(NC(=O)Nc2ccc(Oc3ccccc3Cl)c(S(=O)(=O)O)c2)c1
inactive: [9] 101 % of control | [10] 95 % of control | endpoint: mean survival time, dose: 100.0 mg/kg/injection, schedule: Q04DX003 (ip), vehicle: saline 95 % of control | endpoint: mean survival time, dose: 200.0 mg/kg/injection, schedule: Q04DX003 (ip), vehicle: saline 95 % of control

CCOC(OCC)c1nc(N)nc(N)c1-c1ccc(Cl)c(Cl)c1
inactive: endpoint: mean survival time, dose: 134.0 mg/kg/injection, schedule: Q01DX009 (ip), vehicle: other 123 % of control | endpoint: mean survival time, dose: 200.0 mg/kg/injection, schedule: Q01DX009 (ip), vehicle: other 111 % of control | endpoint: mean survival time, dose: 300.0 mg/kg/injection, schedule: Q01DX009 (ip), vehicle: other 88 % of control

COC(=N)c1ccc(Cl)cc1
inactive: [16] 97 % of control | endpoint: mean survival time, dose: 200.0 mg/kg/injection, schedule: Q04DX003 (ip), vehicle: saline with Tween-80 103 % of control | endpoint: mean survival time, dose: 400.0 mg/kg/injection, schedule: Q04DX003 (ip), vehicle: saline with Tween-80 93 % of control
